# Where a SMILES comes first, the peptide text is derived from it. [ ]: non-standard residue; d: D form. The star is where a group is joined. NHCH2CH2OH = OCCN*; For = O=C*
# Experiments:
# [1] = test system: P388 mouse leukemia cells; details: 92 h
# Outline: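 Peptide stocks diluted 250× in growth medium; P388 cells 1 × 10^4 cells/mL final; 37 °C, 5% CO2, 92 h. WST-1 + 1-methoxy PMS, 4 h, A415. Output: % viability.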
# [2] = H+/Na+ transport assay of bead-derived peptides (one-point); format: biochemical; set-up: key: relative activity; mean of two control wells = 1.00; details: bead-derived peptide solution, EYPC/EYPG LUVs;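 note: relative to parent gramicidin A activity set to 1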
# Outline: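 Miniaturized 96-well format. LUVs with entrapped pyranine (1.0 mM) were exposed to peptide for 30 min at RT. Intensities were expressed relative to full lysis by Triton X-100 and no treatment, with control-well mean = 1.00.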
# [3] = test system: Streptococcus pyogenes SSI-9; experiment: Antibacterial activity assay of bead-derived peptides (three concentrations); format: cell-based; set-up: key: +++: inhibition by the 640-fold diluted peptide solution; ++: inhibition by the 160-fold diluted solution; +: inhibition by the 40-fold diluted solution; -: no inhibition; details: S. pyogenes, bead-derived peptide solution, three concentrations
# Outline: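 First, each peptide stock was diluted 4- and 16-fold in DMSO; next, the three solutions were mixed with S. pyogenes SSI-9 suspension (2 × 10^5 CFU) in cation-adjusted Mueller Hinton Broth plus 5% laked horse blood; finally, plates stood 18 h at 37 °C before checking for grown-cell precipitation.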
smiles,measurement,setting,value
CC(C)C[C@@H](NC(=O)[C@H](C)NC(=O)CNC(=O)[C@@H](NC=O)C(C)C)C(=O)N[C@@H](C)C(=O)N[C@@H](C(=O)N[C@H](C(=O)N[C@H](CC(C)C)C(=O)N[C@@H](Cc1c[nH]c2ccccc12)C(=O)N[C@H](CC(C)C)C(=O)N[C@@H](Cc1c[nH]c2ccccc12)C(=O)N[C@@H](C(=O)N[C@@H](Cc1c[nH]c2ccccc12)C(=O)N[C@H](CC(C)C)C(=O)N[C@@H](Cc1c[nH]c2ccccc12)C(=O)NCCO)C(C)C)C(C)C)C(C)C [compound 13252] (For-VGA[dL]A[dV]V[dL]W[dL]W[dV]W[dL]W-NHCH2CH2OH),cell viability/%,[1],2.6%
same,H+/Na+ transport activity normalized against the value of 1 (1.00),[2],1.14
same,antibacterial activity,[3],-
CC(C)C[C@@H](NC(=O)[C@H](C)NC(=O)CNC(=O)[C@@H](NC=O)C(C)C)C(=O)N[C@@H](C)C(=O)N[C@H](CC(C)C)C(=O)N[C@H](C(=O)N[C@H](CC(C)C)C(=O)N[C@@H](Cc1c[nH]c2ccccc12)C(=O)N[C@H](CC(C)C)C(=O)N[C@@H](Cc1c[nH]c2ccccc12)C(=O)N[C@@H](C(=O)N[C@@H](Cc1c[nH]c2ccccc12)C(=O)N[C@@H](C(=O)N[C@@H](Cc1c[nH]c2ccccc12)C(=O)NCCO)C(C)C)C(C)C)C(C)C [compound 4313] (For-VGA[dL]A[dL]V[dL]W[dL]W[dV]W[dV]W-NHCH2CH2OH),cell viability/%,[1],3.2%
same,H+/Na+ transport activity normalized against the value of 1 (1.00),[2],1.21
same,antibacterial activity,[3],+
CNC(=O)C[C@@H](NC(=O)[C@@H](NC(=O)[C@@H](CC(C)C)NC(=O)[C@H](C)NC(=O)[C@H](NC(=O)[C@H](C)NC(=O)CNC(=O)[C@@H](NC=O)C(C)C)C(C)C)C(C)C)C(=O)N[C@@H](Cc1c[nH]c2ccccc12)C(=O)N[C@@H](C(=O)N[C@@H](Cc1c[nH]c2ccccc12)C(=O)N[C@@H](C(=O)N[C@@H](Cc1c[nH]c2ccccc12)C(=O)N[C@@H](C(=O)N[C@@H](Cc1c[nH]c2ccccc12)C(=O)NCCO)C(C)C)C(C)C)C(C)C [compound 11383] (For-VGA[dV]A[dL]V[dD](NHMe)W[dV]W[dV]W[dV]W-NHCH2CH2OH),cell viability/%,[1],55.3%
same,H+/Na+ transport activity normalized against the value of 1 (1.00),[2],1.09
same,antibacterial activity,[3],-
CC(C)C[C@@H](NC(=O)[C@H](C)NC(=O)CNC(=O)[C@@H](NC=O)C(C)C)C(=O)N[C@@H](C)C(=O)N[C@@H](C(=O)N[C@H](C(=O)N[C@@H](C(=O)N[C@@H](Cc1c[nH]c2ccccc12)C(=O)N[C@@H](C(=O)N[C@@H](Cc1c[nH]c2ccccc12)C(=O)N[C@H](CC(C)C)C(=O)N[C@@H](Cc1c[nH]c2ccccc12)C(=O)N[C@@H](C(=O)N[C@@H](Cc1c[nH]c2ccccc12)C(=O)NCCO)C(C)C)C(C)C)C(C)C)C(C)C)C(C)C [compound 1289] (For-VGA[dL]A[dV]V[dV]W[dV]W[dL]W[dV]W-NHCH2CH2OH),cell viability/%,[1],95.6%
same,H+/Na+ transport activity normalized against the value of 1 (1.00),[2],1.03
same,antibacterial activity,[3],+
CC(C)C[C@@H](NC(=O)[C@H](Cc1c[nH]c2ccccc12)NC(=O)[C@H](NC(=O)[C@H](Cc1c[nH]c2ccccc12)NC(=O)[C@H](NC(=O)[C@@H](NC(=O)[C@H](NC(=O)[C@H](C)NC(=O)[C@H](NC(=O)[C@H](C)NC(=O)CNC(=O)[C@@H](NC=O)C(C)C)C(C)C)C(C)C)C(C)C)C(C)C)C(C)C)C(=O)N[C@@H](Cc1c[nH]c2ccccc12)C(=O)N[C@@H](C(=O)N[C@@H](Cc1c[nH]c2ccccc12)C(=O)NCCO)C(C)C [compound 9571] (For-VGA[dV]A[dV]V[dV]W[dV]W[dL]W[dV]W-NHCH2CH2OH),cell viability/%,[1],100.0%
same,H+/Na+ transport activity normalized against the value of 1 (1.00),[2],1.14
same,antibacterial activity,[3],+
CNC(=O)C[C@@H](NC(=O)[C@H](Cc1c[nH]c2ccccc12)NC(=O)[C@H](NC(=O)[C@@H](NC(=O)[C@@H](CC(C)C)NC(=O)[C@H](C)NC(=O)[C@@H](CC(C)C)NC(=O)[C@H](C)NC(=O)CNC(=O)[C@@H](NC=O)C(C)C)C(C)C)C(C)C)C(=O)N[C@@H](Cc1c[nH]c2ccccc12)C(=O)N[C@H](CC(C)C)C(=O)N[C@@H](Cc1c[nH]c2ccccc12)C(=O)N[C@@H](C(=O)N[C@@H](Cc1c[nH]c2ccccc12)C(=O)NCCO)C(C)C [compound 6889] (For-VGA[dL]A[dL]V[dV]W[dD](NHMe)W[dL]W[dV]W-NHCH2CH2OH),cell viability/%,[1],100.0%
same,H+/Na+ transport activity normalized against the value of 1 (1.00),[2],1.10
same,antibacterial activity,[3],-
CC(C)C[C@@H](NC(=O)[C@H](Cc1c[nH]c2ccccc12)NC(=O)[C@@H](CC(C)C)NC(=O)[C@@H](NC(=O)[C@H](NC(=O)[C@H](C)NC(=O)[C@H](NC(=O)[C@H](C)NC(=O)CNC(=O)[C@@H](NC=O)C(C)C)C(C)C)C(C)C)C(C)C)C(=O)N[C@@H](Cc1c[nH]c2ccccc12)C(=O)N[C@@H](C(=O)N[C@@H](Cc1c[nH]c2ccccc12)C(=O)N[C@@H](C(=O)N[C@@H](Cc1c[nH]c2ccccc12)C(=O)NCCO)C(C)C)C(C)C [compound 8969] (For-VGA[dV]A[dV]V[dL]W[dL]W[dV]W[dV]W-NHCH2CH2OH),cell viability/%,[1],8.7%
same,H+/Na+ transport activity normalized against the value of 1 (1.00),[2],1.09
same,antibacterial activity,[3],-
CC(C)C[C@@H](NC(=O)[C@H](C)NC(=O)CNC(=O)[C@@H](NC=O)C(C)C)C(=O)N[C@@H](C)C(=O)N[C@@H](C(=O)N[C@H](C(=O)N[C@@H](C(=O)N[C@@H](Cc1c[nH]c2ccccc12)C(=O)N[C@@H](C(=O)N[C@@H](Cc1c[nH]c2ccccc12)C(=O)N[C@H](CC(C)C)C(=O)N[C@@H](Cc1c[nH]c2ccccc12)C(=O)N[C@H](CC(C)C)C(=O)N[C@@H](Cc1c[nH]c2ccccc12)C(=O)NCCO)C(C)C)[C@H](C)O)C(C)C)C(C)C [compound 5482] (For-VGA[dL]A[dV]V[dT]W[dV]W[dL]W[dL]W-NHCH2CH2OH),cell viability/%,[1],100.0%
same,H+/Na+ transport activity normalized against the value of 1 (1.00),[2],1.25
same,antibacterial activity,[3],-
CNC(=O)C[C@@H](NC(=O)[C@H](Cc1c[nH]c2ccccc12)NC(=O)[C@@H](CC(C)C)NC(=O)[C@H](Cc1c[nH]c2ccccc12)NC(=O)[C@@H](CC(C)C)NC(=O)[C@H](Cc1c[nH]c2ccccc12)NC(=O)[C@H](NC(=O)[C@@H](NC(=O)[C@H](NC(=O)[C@H](C)NC(=O)[C@@H](CC(C)C)NC(=O)[C@H](C)NC(=O)CNC(=O)[C@@H](NC=O)C(C)C)C(C)C)C(C)C)C(C)C)C(=O)N[C@@H](Cc1c[nH]c2ccccc12)C(=O)NCCO [compound 2020] (For-VGA[dL]A[dV]V[dV]W[dL]W[dL]W[dD](NHMe)W-NHCH2CH2OH),cell viability/%,[1],100.0%
same,H+/Na+ transport activity normalized against the value of 1 (1.00),[2],1.02
same,antibacterial activity,[3],-
CC(C)C[C@@H](NC(=O)[C@H](Cc1c[nH]c2ccccc12)NC(=O)[C@H](NC(=O)[C@H](Cc1c[nH]c2ccccc12)NC(=O)[C@@H](CC(C)C)NC(=O)[C@H](Cc1c[nH]c2ccccc12)NC(=O)[C@H](NC(=O)[C@@H](NC(=O)[C@H](NC(=O)[C@H](C)NC(=O)[C@H](NC(=O)[C@H](C)NC(=O)CNC(=O)[C@@H](NC=O)C(C)C)C(C)C)C(C)C)C(C)C)C(C)C)C(C)C)C(=O)N[C@@H](Cc1c[nH]c2ccccc12)C(=O)NCCO [compound 2994] (For-VGA[dV]A[dV]V[dV]W[dL]W[dV]W[dL]W-NHCH2CH2OH),cell viability/%,[1],6.3%
same,H+/Na+ transport activity normalized against the value of 1 (1.00),[2],1.14
same,antibacterial activity,[3],++
CC(C)C[C@@H](NC(=O)[C@H](C)NC(=O)CNC(=O)[C@@H](NC=O)C(C)C)C(=O)N[C@@H](C)C(=O)N[C@H](CC(C)C)C(=O)N[C@H](C(=O)N[C@@H](C(=O)N[C@@H](Cc1c[nH]c2ccccc12)C(=O)N[C@@H](C(=O)N[C@@H](Cc1c[nH]c2ccccc12)C(=O)N[C@@H](C(=O)N[C@@H](Cc1c[nH]c2ccccc12)C(=O)N[C@H](CC(C)C)C(=O)N[C@@H](Cc1c[nH]c2ccccc12)C(=O)NCCO)C(C)C)C(C)C)C(C)C)C(C)C [compound 12040] (For-VGA[dL]A[dL]V[dV]W[dV]W[dV]W[dL]W-NHCH2CH2OH),cell viability/%,[1],100.0%
same,H+/Na+ transport activity normalized against the value of 1 (1.00),[2],1.07
same,antibacterial activity,[3],+
CC(C)C[C@@H](NC(=O)[C@H](C)NC(=O)CNC(=O)[C@@H](NC=O)C(C)C)C(=O)N[C@@H](C)C(=O)N[C@@H](C(=O)N[C@H](C(=O)N[C@H](CC(C)C)C(=O)N[C@@H](Cc1c[nH]c2ccccc12)C(=O)N[C@H](CC(C)C)C(=O)N[C@@H](Cc1c[nH]c2ccccc12)C(=O)N[C@@H](C(=O)N[C@@H](Cc1c[nH]c2ccccc12)C(=O)N[C@H](CC(C)C)C(=O)N[C@@H](Cc1c[nH]c2ccccc12)C(=O)NCCO)C(C)C)C(C)C)C(C)C [compound 3847] (For-VGA[dL]A[dV]V[dL]W[dL]W[dV]W[dL]W-NHCH2CH2OH),cell viability/%,[1],0.0%
same,H+/Na+ transport activity normalized against the value of 1 (1.00),[2],1.22
same,antibacterial activity,[3],+
CC(C)C[C@@H](NC(=O)[C@H](Cc1c[nH]c2ccccc12)NC(=O)[C@@H](CC(C)C)NC(=O)[C@H](Cc1c[nH]c2ccccc12)NC(=O)[C@H](NC(=O)[C@H](Cc1c[nH]c2ccccc12)NC(=O)[C@@H](CC(C)C)NC(=O)[C@@H](NC(=O)[C@H](NC(=O)[C@H](C)NC(=O)[C@H](NC(=O)[C@H](C)NC(=O)CNC(=O)[C@@H](NC=O)C(C)C)C(C)C)C(C)C)C(C)C)C(C)C)C(=O)N[C@@H](Cc1c[nH]c2ccccc12)C(=O)NCCO [compound 11146] (For-VGA[dV]A[dV]V[dL]W[dV]W[dL]W[dL]W-NHCH2CH2OH),cell viability/%,[1],100.0%
same,H+/Na+ transport activity normalized against the value of 1 (1.00),[2],1.08
same,antibacterial activity,[3],+

# — paper PMC7531004, “Discovery of gramicidin A analogues with altered activities by multidimensional screening of a one-bead-one-compound library” (Nature Communications, 2020)
